# In patent US20040110763A1, “Pyrazolopyridine compound and pharmaceutical use thereof” (priority 2000, published 2004):
row,melting point,Structure (SMILES)
1,182 to 183.5 °C,"CC(C)n1nc(-c2c(-c3ccccc3)nn3ccc(Oc4ccc([N+](=O)[O-])cn4)cc23)ccc1=O [Example 48, 5-[(5-Nitro-2-pyridinyl)oxy]-3-(3-oxo-2-isopropyl-2,3-dihydropyridazin-6-yl)-2-phenylpyrazolo[1,5-a]pyridine]"
2,151 to 152 °C,"CC(C)n1nc(-c2c(-c3ccccc3)nn3ccc(OCC(=O)N4CCN(C(=O)N(C)C)CC4)cc23)ccc1=O [Example 55, N,N-dimethyl-4-[{3-(3-oxo-2-isopropyl-2,3-dihydropyridazin-6-yl)-2-phenylpyrazolo[1,5-a]pyridin-5-yl}oxy]acetyl-1-piperazine carboxamide]"
3,164 to 166 °C,"CC(C)n1nc(-c2c(-c3ccccc3)nn3ccc(OC4CCN(C(=O)N(C)C)CC4)cc23)ccc1=O [Example 56, N,N-Dimethyl-4-[{3-(3-oxo-2-isopropyl-2,3-dihydropyridazin-6-yl)-2-phenylpyrazolo[1,5-a]pyridin-5-yl}oxy]-1-piperidine carboxamide]"
4,117 to 119 °C,"CC(C)n1nc(-c2c(-c3ccccc3)nn3ccc(OCC(=O)NCCN(C)C)cc23)ccc1=O [Example 58, N-[2-(dimethylamino)ethyl]-2-{[3-(3-oxo-2-isopropyl-2,3-dihydropyridazin-6-yl)-2-phenylpyrazolo[1,5-a]pyridin-5-yl]oxy}acetamide]"
5,166 to 167.5 °C,"COc1cccc(CNC(=O)COc2ccn3nc(-c4ccccc4)c(-c4ccc(=O)n(C(C)C)n4)c3c2)c1 [Example 59, 2-{[3-(3-Oxo-2-isopropyl-2,3-dihydropyridazin-6-yl)-2-phenylpyrazolo[1,5-a]pyridin-5-yl]oxy}-N-(3-methoxybenzyl)acetamide]"
6,188 to 190 °C,"CC(C)n1nc(-c2c(-c3ccccc3)nn3ccc(OCC(=O)NCCc4ccccn4)cc23)ccc1=O [Example 60, 2-{[3-(3-oxo-2-isopropyl-2,3-dihydropyridazin-6-yl)-2-phenylpyrazolo[1,5-a)pyridin-5-yl]oxy}-N-[2-(2-pyridinyl)-ethyl]acetamide]"
7,199 to 200 °C,"CC(C)n1nc(-c2c(-c3ccccc3)nn3ccc(OCC(=O)NC4CC4)cc23)ccc1=O [Example 61, N-Cyclopropyl-2-{[3-(3-oxo-2-isopropyl-2,3-dihydropyridazin-6-yl)-2-phenylpyrazolo[1,5-a]pyridin-5-yl]oxy}acetamide]"
8,187 to 188 °C,"CC(C)n1nc(-c2c(-c3ccccc3)nn3ccc(OCC(=O)NC4CCCC4)cc23)ccc1=O [Example 62, N-Cyclopentyl-2-{[3-(3-oxo-2-isopropyl-2,3-dihydropyridazin-6-yl)-2-phenylpyrazolo[1,5-a]pyridin-5-yl]oxy}acetamide]"
9,170 to 171.5 °C,"CC(C)n1nc(-c2c(-c3ccccc3)nn3ccc(OCC(=O)NC4CCCCC4)cc23)ccc1=O [Example 63, N-Cyclohexyl-2-{[3-(3-oxo-2-isopropyl-2,3-dihydropyridazin-6-yl)-2-phenylpyrazolo[1,5-a]pyridin-5-yl]oxy}acetamide]"
10,146 to 148 °C,"CC(C)n1nc(-c2c(-c3ccccc3)nn3ccc(OCC(=O)NC4CCC(O)CC4)cc23)ccc1=O (centres unmarked) [Example 64, N-(4-Hydroxycyclohexyl)-2-{[3-(3-oxo-2-isopropyl-2,3-dihydropyridazin-6-yl)-2-phenylpyrazolo[1,5-a]pyridin-5-yl]oxy}acetamide]"
11,151 to 152 °C,"CCCCNC(=O)COc1ccn2nc(-c3ccccc3)c(-c3ccc(=O)n(C(C)C)n3)c2c1 [Example 65, N-Butyl-2-{[3-(3-oxo-2-isopropyl-2,3-dihydropyridazin-6-yl)-2-phenylpyrazolo[1,5-a]pyridin-5-yl]oxy}acetamide]"
12,144.5 to 145.5 °C,"COCCNC(=O)COc1ccn2nc(-c3ccccc3)c(-c3ccc(=O)n(C(C)C)n3)c2c1 [Example 66, N-(2-Methoxyethyl)-2-[{3-(3-oxo-2-isopropyl-2,3-dihydropyridazin-6-yl)-2-phenylpyrazolo[1,5-a]pyridin-5-yl}oxy]acetamide]"
13,126.5 to 127.5 °C,"CCOCCNC(=O)COc1ccn2nc(-c3ccccc3)c(-c3ccc(=O)n(C(C)C)n3)c2c1 [Example 67, N-(2-Ethoxyethyl)-2-{[3-(3-oxo-2-isopropyl-2,3-dihydropyridazin-6-yl)-2-phenylpyrazolo[1,5-a]pyridin-5-yl]oxy}acetamide]"
14,186 to 187 °C,"COC(=O)c1ccn2nc(-c3ccccc3)c(-c3ccc(=O)n(C(C)C)n3)c2c1 [Example 69, methyl 3-(3-oxo-2-isopropyl-2,3-dihydropyridazin-6-yl)-2-phenylpyrazolo[1,5-a]pyridine-5-carboxylate]"
15,202 to 203 °C,"CC(C)n1nc(-c2c(-c3ccccc3)nn3ccc(C#N)cc23)ccc1=O [Example 71, 3-(3-oxo-2-isopropyl-2,3-dihydropyridazin-6-yl)-2-phenylpyrazolo[1,5-a]pyridine-5-carbonitrile]"
16,189 to 190 °C,"CC(C)n1nc(-c2c(-c3ccccc3)nn3ccc(C(=O)N4CCCC4)cc23)ccc1=O [Example 73, 5-(1-pyrrolidinylcarbonyl)-3-(3-oxo-2-isopropyl-2,3-dihydropyridazin-6-yl)-2-phenylpyrazolo[1,5-a]pyridine]"

row,melting point,Structure (SMILES)
1,157 to 158 °C,"CC(C)n1nc(-c2c(-c3ccccc3)nn3ccc(C(=O)NCCN(C)C)cc23)ccc1=O [Example 76, N-[2-(Dimethylamino)ethyl]-3-(3-oxo-2-isopropyl-2,3-dihydropyridazin-6-yl)-2-phenylpyrazolo[1,5-a]pyridine-5-carboxamide]"
2,149 to 150 °C,"CCOCCNC(=O)c1ccn2nc(-c3ccccc3)c(-c3ccc(=O)n(C(C)C)n3)c2c1 [Example 78, N-(2-Ethoxyethyl)-3-(3-oxo-2-isopropyl-2,3-dihydropyridazin-6-yl)-2-phenylpyrazolo[1,5-a]pyridine-5-carboxamide]"
3,200 to 201 °C,"CC(C)n1nc(-c2c(-c3ccccc3)nn3ccc(C(=O)NC(C)(C)C)cc23)ccc1=O [Example 83, N-(tert-Butyl)-3-(3-oxo-2-isopropyl-2,3-dihydropyridazin-6-yl)-2-phenylpyrazolo[1,5-a]pyridine-5-carboxamide]"
4,184 to 185 °C,"CC(C)n1nc(-c2c(-c3ccccc3)nn3ccc(C(=O)N4CCC(c5ccccc5)CC4)cc23)ccc1=O [Example 84, 5-[(4-Phenyl-1-piperidinyl)carbonyl]-3-(3-oxo-2-isopropyl-2,3-dihydropyridazin-6-yl)-2-phenylpyrazolo[1,5-a]-pyridine]"
5,157 to 158 °C,"CCN(CC)C(=O)c1ccn2nc(-c3ccccc3)c(-c3ccc(=O)n(C(C)C)n3)c2c1 [Example 85, N,N-Diethyl-3-(3-oxo-2-isopropyl-2,3-dihydropyridazin-6-yl)-2-phenylpyrazolo[1,5-a]pyridine-5-carboxamide]"
6,124 to 125 °C,"CC(C)OCCNC(=O)c1ccn2nc(-c3ccccc3)c(-c3ccc(=O)n(C(C)C)n3)c2c1 [Example 86, N-(2-Isopropoxyethyl)-3-(3-oxo-2-isopropyl-2,3-dihydropyridazin-6-yl)-2-phenylpyrazolo[1,5-a]pyridine-5-carboxamide]"
7,192 to 193 °C,"CC(C)n1nc(-c2c(-c3ccccc3)nn3ccc(C(=O)NCc4cccnc4)cc23)ccc1=O [Example 87, N-(3-Pyridinylmethyl)-3-(3-oxo-2-isopropyl-2,3-dihydropyridazin-6-yl)-2-phenylpyrazolo[1,5-a]pyridine-5-carboxamide]"
8,225 to 226 °C,"CNC(=O)c1ccn2nc(-c3ccccc3)c(-c3ccc(=O)n(C(C)C)n3)c2c1 [Example 88, N-Methyl-3-(3-oxo-2-isopropyl-2,3-dihydropyridazin-6-yl)-2-phenylpyrazolo[1,5-a]pyridine-5-carboxamide]"
9,185 to 186 °C,"CC(C)n1nc(-c2c(-c3ccccc3)nn3ccc(C(=O)N4CCCCC4)cc23)ccc1=O [Example 89, 5-(1-Piperidinylcarbonyl)-3-(3-oxo-2-isopropyl-2,3-dihydropyridazin-6-yl)-2-phenylpyrazolo[1,5-a]pyridine]"
10,156 to 157 °C,"CC(C)n1nc(-c2c(-c3ccccc3)nn3ccc(C(=O)NCCOc4ccccc4)cc23)ccc1=O [Example 92, N-(2-Phenoxyethyl)-3-(3-oxo-2-isopropyl-2,3-dihydropyridazin-6-yl)-2-phenylpyrazolo[1,5-a]pyridine-5-carboxamide]"
11,230 to 232 °C,"CC(C)NC(=O)c1ccn2nc(-c3ccccc3)c(-c3ccc(=O)n(C(C)C)n3)c2c1 [Example 95, N-Isopropyl-3-(3-oxo-2-isopropyl-2,3-dihydropyridazin-6-yl)-2-phenylpyrazolo[1,5-a]pyridine-5-carboxamide]"
12,182 to 187 °C,"CC(C)n1nc(-c2c(-c3ccccc3)nn3ccc(N4CCOCC4)cc23)ccc1=O [Example 98, 5-(4-Morpholinyl)-3-(3-oxo-2-isopropyl-2,3-dihydropyridazin-6-yl)-2-phenylpyrazolo[1,5-a]pyridine]"
13,> 240 °C,"CC(C)n1nc(-c2c(-c3ccccc3)nn3ccc(N4CCN(c5ccccc5)CC4)cc23)ccc1=O [Example 99, 5-(4-Phenyl-1-piperazinyl)-3-(3-oxo-2-isopropyl-2,3-dihydropyridazin-6-yl)-2-phenylpyrazolo[1,5-a]pyridine]"
14,176 to 177 °C,"CC(C)n1nc(-c2c(-c3ccccc3)nn3ccc(N4C[C@@H](C)O[C@@H](C)C4)cc23)ccc1=O [Example 100, 5-(cis-2,6-Dimethyl-4-morpholinyl)-3-(3-oxo-2-isopropyl-2,3-dihydropyridazin-6-yl)-2-phenylpyrazolo[1,5-a]-pyridine]"
15,213 to 215 °C,"CC(C)n1nc(-c2c(-c3ccccc3)nn3ccc(N4CCC(O)CC4)cc23)ccc1=O [Example 101, 5-(4-Hydroxy-1-piperidinyl)-3-(3-oxo-2-isopropyl-2,3-dihydropyridazin-6-yl)-2-phenylpyrazolo[1,5-a]pyridine]"
16,221 to 222 °C,"CC(C)n1nc(-c2c(-c3ccccc3)nn3ccc(N4CCN(c5ccccn5)CC4)cc23)ccc1=O [Example 102, 5-[4-(2-Pyridinyl)-1-piperazinyl]-3-(3-oxo-2-isopropyl-2,3-dihydropyridazin-6-yl)-2-phenylpyrazolo[1,5-a]pyridine]"
